Measured values as given in ChEMBL document CHEMBL1201862, “PubChem BioAssay data set” (2004).
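Test compounds were applied to cells in 96-well plates for 48 hours at 5 doses. GI50 is the concentration that inhibits growth by half.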 Calls of active or inactive are those of the source. No stated cut-off is given here; in the data, active = GI50 up to about 1.1 µM and inactive = higher.

How the values were obtained:
Test in all cases: growth of human tumour cells (NCI), 48 h
786-0 = test system: 786-0
CAKI-1 = test system: CAKI-1
CCRF-CEM = test system: CCRF-CEM
HCC 2998 = test system: HCC 2998
HCT-116 = test system: HCT-116
HL-60 = test system: HL-60
KM12 = test system: KM12
OVCAR-4 = test system: OVCAR-4
RPMI-8226 = test system: RPMI-8226
SF-295 = test system: SF-295
SNB-75 = test system: SNB-75
TK-10 = test system: TK-10
UACC-62 = test system: UACC-62
IGROV-1 = test system: IGROV-1
MDA-MB-231 = test system: MDA-MB-231
MDA-MB-435 = test system: MDA-MB-435
NCI-H522 = test system: NCI-H522
SK-OV-3 = test system: SK-OV-3

Measured: GI50

S=c1cc(S)c2c(=S)sc3nc4ccccn4c(=S)c3c2s1
inactive: 786-0 75.5 µM | CAKI-1 > 100 µM | CCRF-CEM 32.7 µM | HCC 2998 39.5 µM | HCT-116 25 µM | HL-60 36.1 µM | KM12 > 100 µM | OVCAR-4 > 100 µM | RPMI-8226 > 100 µM | SF-295 > 100 µM | SNB-75 > 100 µM | TK-10 > 100 µM | UACC-62 36.4 µM

O=C(O)c1cc2ccccc2c(/N=N/c2c([N+](=O)[O-])cc([N+](=O)[O-])cc2S(=O)(=O)O)c1O
inactive: 786-0 > 100 µM | CAKI-1 > 100 µM | CCRF-CEM > 100 µM | HCT-116 > 100 µM | IGROV-1 > 100 µM | KM12 > 100 µM | MDA-MB-231 > 100 µM | MDA-MB-435 > 100 µM | NCI-H522 > 100 µM | OVCAR-4 > 100 µM | RPMI-8226 > 100 µM | SF-295 > 100 µM | SK-OV-3 > 100 µM | SNB-75 > 100 µM | TK-10 > 100 µM | UACC-62 > 100 µM

[O-][S+](CCc1ccccc1)Nc1ccccc1 (stereo not drawn)
inactive: 786-0 > 100 µM | CAKI-1 > 100 µM | CCRF-CEM > 100 µM | HCC 2998 > 100 µM | HCT-116 > 100 µM | HL-60 > 100 µM | IGROV-1 > 100 µM | KM12 > 100 µM | MDA-MB-231 > 100 µM | MDA-MB-435 > 100 µM | NCI-H522 > 100 µM | RPMI-8226 > 100 µM | SF-295 > 100 µM | SNB-75 > 100 µM | TK-10 > 100 µM

NC1=C(c2nc(-c3ccccc3)cs2)C(c2ccco2)c2c(c3ccccc3oc2=O)O1 (stereo not drawn)
inactive: 786-0 > 100 µM | CAKI-1 > 100 µM | CCRF-CEM > 100 µM | HCC 2998 > 100 µM | HCT-116 > 100 µM | HL-60 > 100 µM | IGROV-1 > 100 µM | MDA-MB-231 > 100 µM | MDA-MB-435 > 100 µM | NCI-H522 76.2 µM | OVCAR-4 > 100 µM | SF-295 > 100 µM | SK-OV-3 > 100 µM | SNB-75 > 100 µM | TK-10 > 100 µM | UACC-62 > 100 µM

O=[N+]([O-])c1ccc(OCc2nnc(CCCCCCCCc3nnc(COc4ccc([N+](=O)[O-])cc4)o3)o2)cc1
inactive: 786-0 > 100 µM | HCC 2998 > 100 µM | HCT-116 77.6 µM | IGROV-1 > 100 µM | KM12 55.3 µM | MDA-MB-231 32.7 µM | MDA-MB-435 > 100 µM | NCI-H522 > 100 µM | OVCAR-4 > 100 µM | RPMI-8226 > 100 µM | SF-295 > 100 µM | SK-OV-3 40.6 µM | SNB-75 > 100 µM | TK-10 > 100 µM | UACC-62 > 100 µM

COc1ccc(N[S+]([O-])CCc2ccccc2)cc1 (stereo not drawn)
inactive: 786-0 > 100 µM | CAKI-1 > 100 µM | CCRF-CEM > 100 µM | HCC 2998 94 µM | HCT-116 > 100 µM | HL-60 > 100 µM | IGROV-1 92.5 µM | KM12 > 100 µM | MDA-MB-231 > 100 µM | MDA-MB-435 > 100 µM | NCI-H522 > 100 µM | RPMI-8226 > 100 µM | SF-295 > 100 µM | SK-OV-3 4.35 µM | SNB-75 > 100 µM | TK-10 > 100 µM

O=C1C(Cl)=C(Nc2ccc(S(=O)(=O)O)cc2)C(=O)c2ccccc21
inactive: 786-0 27.2 µM | CAKI-1 39.5 µM | CCRF-CEM 26.7 µM | HCC 2998 95.9 µM | HCT-116 52.6 µM | HL-60 26.9 µM | IGROV-1 20 µM | KM12 22 µM | MDA-MB-231 60.7 µM | MDA-MB-435 21.7 µM | NCI-H522 18.2 µM | OVCAR-4 38.5 µM | RPMI-8226 24.7 µM | SF-295 33.6 µM | SNB-75 67.8 µM | TK-10 22.1 µM | UACC-62 64.4 µM
